These results are taken from US20240123079A1 (Seagen Inc., priority 2021, published 2024).

Where two headings read alike, the source gives them in different places. Bounds are passed on as bounds.

The experiment relates to THP1-Dual™ reporter cells. Kind of experiment: THP1-Dual cell reporter assay (IRF-Lucia luciferase reporter). The format is cell-based, human. Here is the method: THP1-Dual™ Cell Reporter Assay
Potency of compounds and ADCs was evaluated using the THP1-Dual™ cells (InvivoGen PN: thpd-nfis [also referred to as THP1 dual reporter cells]), which contain an IRF-Lucia luciferase reporter. Cells were cultured in RPMI-1640 (Gibco) with 10% heat-inactivated fetal bovine serum, Pen-Strep (100 U/mL-100 μg/mL, Gibco), HEPES (10 mM, Gibco)), sodium pyruvate (1 mM, Gibco), MEM non-essential amino acids (1×, Gibco), GlutaMAX (1×, Gibco), and beta-mercaptoethanol (55 μM, Gibco). Cells were plated in a 96-well flat bottom tissue culture-treated clear polystyrene plate (Corning Costar #3596) at ˜100,000 cells per well in 200 μL with the indicated concentration of the compound or ADC. The supernatant was harvested at 24 hours (compounds) or 48 hours (ADC) post plating for the reporter assay, or as indicated. To measure Lucia reporter signal, 10 μL of the supernatant was combined with 40 μL of QUANTI-Luc™ Luminescence assay reagent (Invivogen PN: rep-qlc1) in a 96-well clear flat bottom tissue culture-treated black polystyrene plate (Corning Costar #3603) and read on a Perkin Elmer Envision plate reader.
STING agonist compounds were assessed for their ability to activate THP1-Dual™ reporter cells, a human monocytic cell line in which type I interferon (IRF) signaling can be monitored via a secreted luciferase reporter protein (Lucia). THP1-Dual™ cells were treated with increasing concentrations of the agonists for 24h, then supernatants were harvested and the Lucia reporter signal was quantified using QUANTI-Luc™ Luminescence assay reagent.
For orientation: A reporter such as luciferase makes a cellular process visible.

The mark [1] stands for this setting: ADCs: drug linker conjugated to a targeted mAb, 48 h.
The mark [2] stands for this setting: Homo sapiens, THP1-Dual, free compounds, 24 h, Lucia reporter signal, read-out: EC50.

On to `CCn1nc(C)cc1C(=O)Nc1nc2cc(S(N)(=O)=O)ccc2n1C/C=C/Cn1c(NC(=O)c2cc(C)nn2CC)nc2cc(C(N)=O)cc(OCCCN(C)C(=O)CCN3C(=O)C=CC3=O)c21` [Compound 25, (E)-7-(3-(3-(2,5-dioxo-2,5-dihydro-1H-pyrrol-1-yl)-N-methylpropanamido)propoxy)-2-(1-ethyl-3-methyl-1H-pyrazole-5-carboxamido)-1-(4-(2-(1-ethyl-3-methyl-1H-pyrazole-5-carboxamido)-5-sulfamoyl-1H-benzo[d]imidazol-1-yl)but-2-en-1-yl)-1H-benzo[d]imidazole-5-carboxamide], for which the EC50 (commonly the midpoint of the concentration-response curve) under setting [1] is 307 ng/mL.

As to `CCn1nc(C)cc1C(=O)Nc1nc2cc(C(N)=O)cc(OC)c2n1C/C=C/Cn1c(NC(=O)c2cc(C)nn2CC)nc2cc(C(N)=O)cc(OCCC3CNC3)c21` [Compound 26f], the EC50 under setting [2] was 69 nM.

Consider `CCn1nc(C)cc1C(=O)Nc1nc2cc(C(N)=O)cc(OC)c2n1C/C=C/Cn1c(NC(=O)c2cc(C)nn2CC)nc2cc(C(N)=O)cc(OCCCN(C)C(=O)OCc3ccc(O[C@@H]4O[C@H](C(=O)O)[C@@H](O)[C@H](O)[C@H]4O)cc3NC(=O)CCNC(=O)CCN3C(=O)C=CC3=O)c21` [Compound 13], for which, where the note is “conjugated to a targeted mAb, 48 h”, the “potency of ADC relative to other ADC” value is “more potent”.

For `CCc1cc(C(=O)Nc2nc3cc(C(N)=O)cc(OCCCN(C)C(=O)CCN4C(=O)C=CC4=O)c3n2C/C=C/Cn2c(NC(=O)c3cc(C)nn3CC)nc3cc(C(N)=O)cc(OC)c32)n(C)n1` [Compound 104], under setting [1], the “EC50 (ng/mL)” value is reported as >10,000 ng/mL.

`CCn1nc(C)cc1C(=O)Nc1nc2cc(C(N)=O)cc(OC)c2n1C/C=C/Cn1c(NC(=O)c2cc(C)sn2)nc2cc(C(N)=O)cc(OCCCN(C)C(=O)CCN3C(=O)C=CC3=O)c21` [Compound 107]: the “EC50 (ng/mL)” value under setting [1] is recorded as >10,000 ng/mL.

Consider `CCn1nc(C)cc1C(=O)Nc1nc2cc(C(N)=O)cc(O)c2n1C/C=C/Cn1c(NC(=O)c2cc(C)nn2CC)nc2cc(C(N)=O)cc(OCCCN3CCOCC3)c21` [Compound 70], for which the EC50 under setting [2] stood at 1.6 nM.

For `CCn1nc(C)cc1C(=O)Nc1nc2cc(C(=O)OC)cc(OC)c2n1C/C=C/Cn1c(NC(=O)c2cc(C)nn2CC)nc2cc(C(=O)OC)cc(OCCCN(C)C(=O)CCN3C(=O)C=CC3=O)c21` [Compound 66, methyl (E)-7-(3-(3-(2,5-dioxo-2,5-dihydro-1H-pyrrol-1-yl)-N-methylpropanamido)propoxy)-2-(1-ethyl-3-methyl-1H-pyrazole-5-carboxamido)-1-(4-(2-(1-ethyl-3-methyl-1H-pyrazole-5-carboxamido)-7-methoxy-5-(methoxycarbonyl)-1H-benzo[d]imidazol-1-yl)but-2-en-1-yl)-1H-benzo[d]imidazole-5-carboxylate], the “EC50 (ng/mL)” value under setting [1] is reported as >10,000 ng/mL.

In the case of `CCn1nc(C)cc1C(=O)Nc1nc2cc(C(N)=O)cc(OC)c2n1C/C=C/Cn1c(NC(=O)c2ccnn2CC)nc2cc(C(N)=O)cc(OCCCNC)c21` [Compound 91], the concentration giving a half-maximal response (EC50) under setting [2] worked out at 350 nM.

As for `CCn1nc(C)cc1C(=O)Nc1nc2cc(C(N)=O)cc(O)c2n1C/C=C/Cn1c(NC(=O)c2cc(C)nn2CC)nc2cc(C(N)=O)cc(OCCCNC)c21` [Compound 15b], the half-maximal effective concentration (EC50) under setting [2] came out at 5.8 nM. Also, the “potency relative to other free compound” value (free drug) is reported as “more potent than 12a”.

Turning to `CCn1nc(C)cc1C(=O)Nc1nc2cc(C(N)=O)cc(OC)c2n1C/C=C/Cn1c(NC(=O)c2cc(C)nn2CC)nc2cc(C(N)=O)cc(OCCCN(C)C(=O)[C@@H](N)Cc3cn(C)cn3)c21` [Compound 119], the EC50 under setting [2] is 49.9 nM.

`CCn1nc(C)cc1C(=O)Nc1nc2cc(C(N)=O)cc(OC)c2n1C/C=C/Cn1c(NC(=O)c2cc(C)nn2CC)nc2cc(C(N)=O)cc(OCCC3CN(C(=O)CCN4C(=O)C=CC4=O)C3)c21` [Compound 26, (E)-1-(4-(5-carbamoyl-2-(1-ethyl-3-methyl-1H-pyrazole-5-carboxamido)-7-methoxy-1H-benzo[d]imidazol-1-yl)but-2-en-1-yl)-7-(2-(1-(3-(2,5-dioxo-2,5-dihydro-1H-pyrrol-1-yl)propanoyl)azetidin-3-yl)ethoxy)-2-(1-ethyl-3-methyl-1H-pyrazole-5-carboxamido)-1H-benzo[d]imidazole-5-carboxamide]: under setting [1], the “EC50” value came to 14.4 ng/mL.

As to `CCn1nc(C)cc1C(=O)Nc1nc2cc(S(=O)(=O)NC)ccc2n1C/C=C/Cn1c(NC(=O)c2cc(C)nn2CC)nc2cc(C(N)=O)cc(OCCCN(C)C(=O)CCN3C(=O)C=CC3=O)c21` [Compound 128, (E)-7-(3-(3-(2,5-dioxo-2,5-dihydro-1H-pyrrol-1-yl)-N-methylpropanamido)propoxy)-2-(1-ethyl-3-methyl-1H-pyrazole-5-carboxamido)-1-(4-(2-(1-ethyl-3-methyl-1H-pyrazole-5-carboxamido)-5-(N-methylsulfamoyl)-1H-benzo[d]imidazol-1-yl)but-2-en-1-yl)-1H-benzo[d]imidazole-5-carboxamide], the “EC50 (ng/mL)” value under setting [1] is recorded as >10,000 ng/mL.

Turning to `CCc1cc(C(=O)Nc2nc3cc(C(N)=O)cc(OCCCNC)c3n2C/C=C/Cn2c(NC(=O)c3cc(C)nn3CC)nc3cc(C(N)=O)cc(OC)c32)n(C)n1` [Compound 87], the EC50 under setting [2] was over 10000 nM.

`CCc1nc(C)sc1C(=O)Nc1nc2cc(C(N)=O)cc(OCCCNC)c2n1C/C=C/Cn1c(NC(=O)c2cc(C)nn2CC)nc2cc(C(N)=O)cc(OC)c21` [Compound 94]: under setting [2], the EC50 amounted to 133 nM.

On to `CCn1nc(C)cc1C(=O)Nc1nc2cc(C(N)=O)cc(OC)c2n1C/C=C/Cn1c(NC(=O)c2cc(C)nn2C)nc2cc(C(N)=O)cc(OCCCN(C)C(=O)CCN3C(=O)C=CC3=O)c21` [Compound 105], for which the “EC50” value under setting [1] stood at 52.5 ng/mL.

`CCn1nc(C)cc1C(=O)Nc1nc2cc(S(N)(=O)=O)ccc2n1C/C=C/Cn1c(NC(=O)c2cc(C)nn2C)nc2cc(C(N)=O)cc(OCCC3CN(C(=O)CCN4C(=O)C=CC4=O)C3)c21` [Compound 145, (E)-2-(1,3-dimethyl-1H-pyrazole-5-carboxamido)-7-(2-(1-(3-(2,5-dioxo-2,5-dihydro-1H-pyrrol-1-yl)propanoyl)azetidin-3-yl)ethoxy)-1-(4-(2-(1-ethyl-3-methyl-1H-pyrazole-5-carboxamido)-5-sulfamoyl-1H-benzo[d]imidazol-1-yl)but-2-en-1-yl)-1H-benzo[d]imidazole-5-carboxamide]: the “EC50 (ng/mL)” value under setting [1] is listed as >10,000 ng/mL.

As for `CCn1nc(C)cc1C(=O)Nc1nc2cc(S(=O)(=O)NC)ccc2n1C/C=C/Cn1c(NC(=O)c2cc(C)nn2CC)nc2cc(C(N)=O)cc(OCCCNC)c21` [Compound 128a], the EC50 under setting [2] was over 10000 nM.

For the compound `COc1cc(C(N)=O)cc2nc(NC(=O)C(C)n3cc(Cl)cn3)n(C/C=C/Cn3c(NC(=O)C(C)n4cc(Cl)cn4)nc4cc(C(N)=O)cc(O)c43)c12` (stereo not drawn) [Compound 49], under setting [2], the EC50 was over 10000 nM.

Turning to `COc1cc(C(N)=O)cc2nc(NC(=O)c3ccco3)n(C/C=C/Cn3c(NC(=O)c4ccco4)nc4cc(C(N)=O)cc(O)c43)c12` [Compound 33], under setting [2], the EC50 is over 10000 nM.

As to `CCc1nc(C)oc1C(=O)Nc1nc2cc(C(N)=O)cc(OCCCOC3CNC3)c2n1C/C=C/Cn1c(NC(=O)c2cc(C)nn2CC)nc2cc(C(N)=O)cc(OC)c21` [Compound 143, (E)-N-(7-(3-(azetidin-3-yloxy)propoxy)-5-carbamoyl-1-(4-(5-carbamoyl-2-(1-ethyl-3-methyl-1H-pyrazole-5-carboxamido)-7-methoxy-1H-benzo[d]imidazol-1-yl)but-2-en-1-yl)-1H-benzo[d]imidazol-2-yl)-4-ethyl-2-methyloxazole-5-carboxamide], the EC50 under setting [2] stood at 155 nM.
